Assay results from US9102931B1, “Yeast strains and method for lignocellulose to ethanol production” (priority 2012, dated 2015).

What was measured:
[1] = tested on: native xylose uptake of S. cerevisiae Y-50049-YXI (control host strain, YXI xylose isomerase SEQ ID NO: 63, no added xylose transporter gene); experiment: Aerobic xylose uptake kinetics (Lineweaver-Burk), host strain Y-50049-YXI (control); assay type: cell-based; conditions: whole cells, 30° C.
Text: The relative performance of yeast strains Y-50746, Y-50747, Y-50748, Y-50749, Y-50465, and Y-50466 containing a xylose isomerase gene and a xylose xylose transporter gene was further assessed in cell populations that were first grown aerobically on xylose and then transferred into fresh culture medium at high cell density. Under these conditions a high metabolic carbon demand creates the potential for transport to be a limiting factor and amplifies volumetric xylose consumption from the medium. Aerobic xylose uptake rate was assessed for the host strain Y-50049−YXI and each of its six xylose transporter-expressing derivatives. […] Once xylose was added to cultures, the reaction timing began, and the first sample was immediately taken, diluted for optical density reading, and centrifuged (10,000 rpm, 6 min). […] Subsequent samples were collected at 2 h, 4 h, 6 h, and the specific xylose consumption rate (V) was calculated as the rate of decline in xylose concentration (X)/per dry cell concentration (b), assuming the linear correlation of dry yeast biomass concentration with absorbance, b=(0.167 g/L). […] The relative statistical differences between strain performances due to the specific transporter gene expressed were determined by running a two-way analysis of variance of V as a function of the transporter gene and the initial xylose concentration. […]

[2] = molecular target: T1, S. stipitis xylose transporter RGT2, SEQ ID NO: 64, in S. cerevisiae Y-50049-YXI-RGT2 (NRRL Y-50465) (Scheffersomyces stipitis, UniProt J9PF54); experiment: Aerobic xylose uptake kinetics (Lineweaver-Burk), Y-50049-YXI-RGT2; assay type: cell-based; conditions: whole cells, 30° C.
T1 construct: whole-cell xylose uptake; S. stipitis CUG codons are read as Leu in this host
T1 sequence (J9PF54 1-528): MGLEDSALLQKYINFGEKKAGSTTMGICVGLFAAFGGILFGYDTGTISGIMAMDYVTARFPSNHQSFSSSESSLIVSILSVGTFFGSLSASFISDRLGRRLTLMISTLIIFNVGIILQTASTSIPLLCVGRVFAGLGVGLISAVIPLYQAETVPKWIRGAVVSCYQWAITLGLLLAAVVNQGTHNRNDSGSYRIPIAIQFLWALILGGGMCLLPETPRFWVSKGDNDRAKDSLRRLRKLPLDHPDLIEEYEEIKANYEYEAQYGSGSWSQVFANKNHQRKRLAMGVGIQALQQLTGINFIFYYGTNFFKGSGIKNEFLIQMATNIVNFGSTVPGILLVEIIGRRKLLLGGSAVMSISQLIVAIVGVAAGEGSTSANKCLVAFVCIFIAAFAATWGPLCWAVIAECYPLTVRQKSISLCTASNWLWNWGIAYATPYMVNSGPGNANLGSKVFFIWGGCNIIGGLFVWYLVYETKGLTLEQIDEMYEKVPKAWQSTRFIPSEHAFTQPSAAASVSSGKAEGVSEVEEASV
Text: (§1) A portion of promoter and terminator for PGK1 was amplified from S. cerevisiae NRRL Y-50049 genomic DNA using primers PGK_PL/PGK_PR and PGK_TL/PGK_TR, as detailed in the Description of Sequences above. Amplified PGK1 fragments were cloned into vector pRS42H resulting in pRS42H -PGK1 promoter-terminator. Six putative xylose transporter genes XUT4, XUT5, XUT6, XUT7, RGT2, and SUT4 were amplified using various primers from the genomic DNA of S. stipitis. Each xylose transporter gene was cloned into the S. cerevisiae expression vector pRS42H-PGK1 promoter-terminator with proper restriction endonuclease sites designed. All DNA oligos were synthesized by IDT (Coralville, Iowa). […]
(§2) The relative performance of yeast strains Y-50746, Y-50747, Y-50748, Y-50749, Y-50465, and Y-50466 containing a xylose isomerase gene and a xylose xylose transporter gene was further assessed in cell populations that were first grown aerobically on xylose and then transferred into fresh culture medium at high cell density. […] Aerobic xylose uptake rate was assessed for the host strain Y-50049−YXI and each of its six xylose transporter-expressing derivatives. […] Once xylose was added to cultures, the reaction timing began, and the first sample was immediately taken, diluted for optical density reading, and centrifuged (10,000 rpm, 6 min). […]

[3] = molecular target: T2, S. stipitis xylose transporter SUT4, SEQ ID NO: 69, in S. cerevisiae Y-50049-YXI-SUT4 (NRRL Y-50748) (Scheffersomyces stipitis, UniProt J9Q8Z9); experiment: Aerobic xylose uptake kinetics (Lineweaver-Burk), Y-50049-YXI-SUT4; assay type: cell-based; conditions: whole cells, 30° C.
T2 construct: whole-cell xylose uptake; S. stipitis CUG codons are read as Leu in this host
T2 sequence (J9Q8Z9 1-549): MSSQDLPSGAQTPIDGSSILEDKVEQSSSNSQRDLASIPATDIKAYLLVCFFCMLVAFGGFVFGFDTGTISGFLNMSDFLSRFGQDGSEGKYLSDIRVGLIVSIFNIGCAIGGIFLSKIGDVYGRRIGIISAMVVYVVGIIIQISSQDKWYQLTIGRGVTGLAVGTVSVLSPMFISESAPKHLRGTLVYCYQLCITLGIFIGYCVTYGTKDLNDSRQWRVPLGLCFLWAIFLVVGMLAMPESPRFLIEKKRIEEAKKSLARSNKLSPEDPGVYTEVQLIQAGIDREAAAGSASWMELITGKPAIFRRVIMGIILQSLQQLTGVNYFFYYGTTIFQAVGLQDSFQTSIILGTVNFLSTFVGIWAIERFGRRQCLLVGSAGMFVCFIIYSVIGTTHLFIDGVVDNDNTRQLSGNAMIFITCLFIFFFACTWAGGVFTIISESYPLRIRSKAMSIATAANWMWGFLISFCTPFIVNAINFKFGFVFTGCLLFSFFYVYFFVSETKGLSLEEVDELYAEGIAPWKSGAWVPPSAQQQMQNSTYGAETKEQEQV
Text: as §1, §2

[4] = molecular target: T3, S. stipitis xylose transporter XUT4, SEQ ID NO: 68, in S. cerevisiae Y-50049-YXI-XUT4 (NRRL Y-50747) (Scheffersomyces stipitis, UniProt J9PED0); experiment: Aerobic xylose uptake kinetics (Lineweaver-Burk), Y-50049-YXI-XUT4; assay type: cell-based; conditions: whole cells, 30° C.
T3 construct: whole-cell xylose uptake; S. stipitis CUG codons are read as Leu in this host
T3 sequence (J9PED0 entry or part of it): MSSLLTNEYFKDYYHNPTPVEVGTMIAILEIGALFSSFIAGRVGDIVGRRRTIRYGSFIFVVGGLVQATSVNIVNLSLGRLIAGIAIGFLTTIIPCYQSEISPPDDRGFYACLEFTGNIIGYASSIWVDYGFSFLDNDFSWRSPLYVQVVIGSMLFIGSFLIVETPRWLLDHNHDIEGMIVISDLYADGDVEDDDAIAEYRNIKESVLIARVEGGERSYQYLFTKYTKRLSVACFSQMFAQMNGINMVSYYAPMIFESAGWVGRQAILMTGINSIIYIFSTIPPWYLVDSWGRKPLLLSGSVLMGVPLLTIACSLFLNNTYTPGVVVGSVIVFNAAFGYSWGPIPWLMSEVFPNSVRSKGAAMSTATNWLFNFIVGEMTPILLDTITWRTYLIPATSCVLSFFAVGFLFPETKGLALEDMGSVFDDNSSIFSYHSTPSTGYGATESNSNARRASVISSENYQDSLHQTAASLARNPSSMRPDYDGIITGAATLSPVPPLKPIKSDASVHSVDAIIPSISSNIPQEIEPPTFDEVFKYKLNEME
Text: as §1, §2

[5] = molecular target: T4, S. stipitis xylose transporter XUT5, SEQ ID NO: 66, in S. cerevisiae Y-50049-YXI-XUT5 (NRRL Y-50746) (Scheffersomyces stipitis, UniProt A3LY79); experiment: Aerobic xylose uptake kinetics (Lineweaver-Burk), Y-50049-YXI-XUT5; assay type: cell-based; conditions: whole cells, 30° C.
T4 construct: whole-cell xylose uptake; S. stipitis CUG codons are read as Leu in this host
T4 sequence (A3LY79 entry or part of it): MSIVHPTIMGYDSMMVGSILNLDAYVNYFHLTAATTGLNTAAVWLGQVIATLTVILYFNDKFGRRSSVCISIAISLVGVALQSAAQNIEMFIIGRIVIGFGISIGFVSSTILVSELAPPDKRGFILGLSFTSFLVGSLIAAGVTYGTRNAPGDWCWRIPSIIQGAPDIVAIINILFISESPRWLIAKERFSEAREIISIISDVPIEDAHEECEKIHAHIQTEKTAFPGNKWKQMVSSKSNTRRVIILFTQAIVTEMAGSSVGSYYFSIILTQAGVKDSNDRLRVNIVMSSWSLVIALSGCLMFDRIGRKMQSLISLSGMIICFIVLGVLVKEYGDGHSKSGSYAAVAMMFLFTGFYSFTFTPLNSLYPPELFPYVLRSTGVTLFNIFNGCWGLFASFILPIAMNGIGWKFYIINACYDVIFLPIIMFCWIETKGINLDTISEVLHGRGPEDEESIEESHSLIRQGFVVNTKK
Text: as §1, §2

[6] = molecular target: T5, S. stipitis xylose transporter XUT6, SEQ ID NO: 67, in S. cerevisiae Y-50049-YXI-XUT6 (NRRL Y-50749) (Scheffersomyces stipitis, UniProt J9Q9F3); experiment: Aerobic xylose uptake kinetics (Lineweaver-Burk), Y-50049-YXI-XUT6; assay type: cell-based; conditions: whole cells, 30° C.
T5 construct: whole-cell xylose uptake; S. stipitis CUG codons are read as Leu in this host
T5 sequence (J9Q9F3 1-544): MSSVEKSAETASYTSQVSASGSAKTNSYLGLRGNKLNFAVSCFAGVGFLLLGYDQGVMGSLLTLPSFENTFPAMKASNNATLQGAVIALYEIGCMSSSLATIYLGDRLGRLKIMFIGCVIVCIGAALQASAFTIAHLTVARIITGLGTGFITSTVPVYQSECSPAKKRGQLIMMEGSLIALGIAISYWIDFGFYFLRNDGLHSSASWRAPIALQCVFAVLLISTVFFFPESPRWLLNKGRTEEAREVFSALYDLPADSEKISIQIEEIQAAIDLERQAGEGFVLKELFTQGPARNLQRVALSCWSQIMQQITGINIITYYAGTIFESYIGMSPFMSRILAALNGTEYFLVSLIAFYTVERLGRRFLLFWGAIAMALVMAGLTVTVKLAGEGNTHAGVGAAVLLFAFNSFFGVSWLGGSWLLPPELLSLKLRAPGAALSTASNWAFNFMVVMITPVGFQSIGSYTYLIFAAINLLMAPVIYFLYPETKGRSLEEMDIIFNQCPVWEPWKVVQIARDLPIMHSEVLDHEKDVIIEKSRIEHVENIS
Text: as §1, §2

[7] = molecular target: T6, S. stipitis xylose transporter XUT7, SEQ ID NO: 65, in S. cerevisiae Y-50049-YXI-XUT7 (NRRL Y-50466) (Scheffersomyces stipitis, UniProt J9PER1); experiment: Aerobic xylose uptake kinetics (Lineweaver-Burk), Y-50049-YXI-XUT7; assay type: cell-based; conditions: whole cells, 30° C.
T6 construct: whole-cell xylose uptake; S. stipitis CUG codons are read as Leu in this host
T6 sequence (J9PER1 1-418): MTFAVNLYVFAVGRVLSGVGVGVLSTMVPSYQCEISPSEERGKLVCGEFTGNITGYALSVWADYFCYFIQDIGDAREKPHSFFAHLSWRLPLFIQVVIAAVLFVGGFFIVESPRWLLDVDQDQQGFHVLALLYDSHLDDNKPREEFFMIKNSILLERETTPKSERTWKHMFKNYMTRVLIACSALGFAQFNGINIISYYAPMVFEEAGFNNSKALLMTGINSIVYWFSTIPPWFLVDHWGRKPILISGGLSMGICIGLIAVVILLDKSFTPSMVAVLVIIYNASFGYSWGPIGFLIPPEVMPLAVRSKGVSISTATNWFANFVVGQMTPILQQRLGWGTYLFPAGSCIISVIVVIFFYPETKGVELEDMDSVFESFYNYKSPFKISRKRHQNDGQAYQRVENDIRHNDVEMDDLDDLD
Text: as §1, §2

[8] = tested on: S. stipitis Y-7124 xylose proton symporters; conditions: associated with S. stipitis symport, approximate (~); cited from earlier work

OC1OC[C@@H](O)[C@H](O)[C@H]1O (stereo partly drawn) [xylose, D-xylose]
Vmax [1]: 0.14 g/g/h | Vmax [2]: 0.28 g/g/h | Vmax [3]: 0.36 g/g/h | Vmax [4]: 0.35 g/g/h | Vmax [5]: 0.88 g/g/h | Vmax [6]: 0.33 g/g/h | Vmax [7]: 0.26 g/g/h | Km [8]: 0.01 to 0.3 g/L
